Consider 15 molecules from patent US8431611B2, “Artemisinin derivatives” (Johns Hopkins University, priority 2006, dated 2013).

The structures appear in SMILES notation. Values after ≈ are worked out from the molar mass of the structure shown. “Also recorded” adds a separate entry of the source. Like-named read-outs stand apart in the source and are kept apart here. Bounds are passed on as bounds.

The subject of series [1] is Normal human foreskin fibroblasts. The format is cell-based. As for the experimental part: (§1) Normal human foreskin fibroblasts (American Type Culture Collection, Manassas, Va.) were used to grow tachyzoites and to test compounds for activity and cytotoxicity. Cells were maintained in Dulbecco's modified Eagle medium (Gibco, Grand Island, N.Y.) containing 10% fetal bovine serum (Atlas Biologicals, Fort Collins, Colo.), 25 mM HEPES (Gibco), 2 mM L-glutamine, 50 units of penicillin G per ml, and 50 μg of streptomycin sulfate per ml. A culture of the tachyzoites of T. gondii strain 2F, which constitutively expresses cytoplasmic β-galactosidase and is derived from strain RH (5), was a gift from Vern Carruthers, University of Michigan Medical School.
(§2) The compounds were tested for in vitro efficacy against T. gondii and cytotoxicity by previously published methods (9, 10). The median inhibitory dose (50% inhibitory dose [ID50]) and the median cytotoxic dose (50% toxic dose [TD50]) were calculated by extrapolation of the corresponding dose-response curve on a log-linear plot employing the portions of the curve that transected the 50% response point. For each compound, a therapeutic index (TI) was calculated by the formula TI=TD50/ID50.
(§3) Artemisinin was obtained from Holley Pharmaceuticals Co., Inc., Fullerton, Calif. Artemether was generously donated by Huiling Wang, University of Wuhan, China. Trimethoprim was purchased from Sigma Chemical Co. (St. Louis, Mo.). Chlorophenol red-β-D-galactopyranoside (Roche, Indianapolis, Ind.), 100 mM in 100 mM HEPES (pH 7.2), was stored frozen at −80° C. CellTiter 96 AQueous One Solution Reagent for determining cytotoxicity was purchased from Promega Corp., Madison, Wis.

For another series, the system named is T. gondii strain 2F. Kind of series: In vitro inhibition of T. gondii (growth inhibition assay). The format is cell-based, Toxoplasma gondii. Particulars: for antitoxoplasma inhibitory activity (growth inhibition assay): in words. As to the method: as §1, §2, §3
In series [2] the test system is T. gondii tachyzoites. Kind of series: Replication inhibition assay. The format is cell-based, Toxoplasma gondii. Particulars: 10 μg/ml added 2 hours after infection of HFF cells, 26 hours; FIG. 2. As to the method: FIG. 2 illustrates the replication inhibition assay. T. gondii tachyzoites are allowed to infect HFF cells for 2 hours. Following this, compounds are added to the cells for a final concentration of 10 μg/ml and the infection is allowed to progress for 26 hours. Data are compiled from ten randomly selected fields wherein number of vacuoles and number of parasites within the vacuoles are enumerated. Control represents no drug added.
FIG. 2 illustrates the replication inhibition assay (14). T. gondii tachyzoites are allowed to infect HFF cells for 2 hours. Following this, compounds are added to the cells for a final concentration of 10 μg/ml and the infection is allowed to progress for 26 hours. Data are compiled from ten randomly selected fields wherein number of vacuoles and number of parasites within the vacuoles are enumerated. Control represents no drug added.

Series [3] has as its system T. gondii tachyzoites. Kind of series: Quantification of invasion using red/green assay (attachment/penetration). Format: cell-based, Toxoplasma gondii. Particulars: 10 μg/ml (range 25-34 μM); FIG. 1. As for the experimental part: FIG. 1 illustrates the quantification of invasion using red/green assay. Green bars represent internal/penetrated parasites while red bars depict external/attached parasites. Compounds were tested at 10 μg/ml (range 25-34 μM). BAPTA-AM (20 μM) and cytochalasin D (Cyt D, 2 μM) were included as positive controls for inhibition of attachment or penetration, respectively. Data are mean values±SEM of three independent experiments, counting ten random fields for each sample.
FIG. 1 illustrates the quantification of invasion using red/green assay (8). Black bars represent internal/penetrated parasites while gray bars depict external/attached parasites. Compounds were tested at 10 μg/ml (range 25-34 μM). BAPTA-AM (20 μM) and cytochalasin D (Cyt D, 2 μM) were included as positive controls for inhibition of attachment or penetration, respectively. Data are mean values±SEM of three independent experiments, counting ten random fields for each sample.

The test system of series [4] is chloroquine-sensitive Plasmodium falciparum (NF 54). Kind of series: Inhibition of replication of malaria parasites. Format: cell-based. Particulars: unpublished data of J. D'Angelo and G. Posner.
Where [5] appears, read: Table 1, T. gondii in human foreskin fibroblasts.
The mark [6] stands for this setting: Toxoplasma gondii, Fibroblast, Table 1, T. gondii in human foreskin fibroblasts, read-out: ID50 (the source's name).
The mark [7] stands for this setting: Toxoplasma gondii, Table 2, average of three independent experiments, read-out: ID50 (the source's name).
[8] abbreviates: Toxoplasma gondii, summary of Table 1, read-out: concentration inhibiting toxoplasma replication.
[9] abbreviates: Table 1, T. gondii in human foreskin fibroblasts, read-out: ID50 (the source's name).
The mark [10] stands for this setting: Table 2, average of three independent experiments, read-out: ID50 (the source's name).

For the molecule `CO[C@H]1O[C@@H]2O[C@@]3(C)CC[C@H]4[C@H](C)CC[C@@H]([C@H]1C)[C@@]24OO3` [Artemether, reference compound], the “concentration of 50% cytotoxicity (TD50)” value in series [1] (human) is above 160 µg/mL. The ID50 in the series on T. gondii strain 2F (setting [5]) was 0.2 µg/mL (≈ 0.67 µM). Also, the IC50 in the series on T. gondii strain 2F (setting [6]) is 700 nM; in the series with T. gondii strain 2F (setting [7]), 370 nM; in the series with T. gondii strain 2F (setting [8]), below 1 µg/mL.

Regarding `C[C@@H]1CC[C@H]2[C@@H](C)C(=O)O[C@@H]3O[C@@]4(C)CC[C@@H]1[C@]32OO4` [Artemisinin], in the series with T. gondii tachyzoites [2], the “inhibition of T. gondii replication” value is “ineffective”. Besides, in the series with T. gondii tachyzoites [3], the “inhibition of attachment of T. gondii tachyzoites to HFF cells” value (“inhibition of attachment … to HFF cells” for short) is recorded as “exception”. Moreover, in the series on T. gondii strain 2F (setting [5]), the ID50 is 2.3 µg/mL (≈ 8.15 µM). The results for the IC50 in the series on T. gondii strain 2F (setting [6]) and in the series with T. gondii strain 2F (setting [8]) were 8000 nM and 2 to 3 µg/mL, respectively.

For `C[C@H]1[C@@H](CCCO)O[C@@H]2O[C@]3(C)CC[C@H]4[C@H](C)CC[C@@H]1[C@@]24OO3` [Compound 2a, ART-PrOH], the ID50 in the series with T. gondii strain 2F (setting [5]) came out at 2.7 µg/mL (≈ 8.27 µM). For the same molecule, the IC50 in the series with T. gondii strain 2F (setting [6]) is 8300 nM; in the series on T. gondii strain 2F (setting [8]) it was 2 to 3 µg/mL.

As for `CC1CCC2C(C)C(CCCOC(=O)c3ccccc3)OC3OC4(C)CCC1C32OO4` (stereo not drawn) [Compound 2b], the ID50 with T. gondii strain 2F (setting [5]) is 0.6 µg/mL (≈ 1.39 µM). Moreover, the IC50 in the series with T. gondii strain 2F (setting [9]) is 1400 nM.

Regarding `CC1CCC2C(C)C(CCCOC(=O)c3ccccc3Br)OC3OC4(C)CCC1C32OO4` (stereo not drawn) [Compound 2c], the ID50 with T. gondii strain 2F (setting [5]) stood at 0.6 µg/mL (≈ 1.18 µM). Also, the IC50 in the series with T. gondii strain 2F (setting [9]) was 1200 nM.

Consider `CC(C)=CCCC(C)CCOCCCC1OC2OC3(C)CCC4C(C)CCC(C1C)C24OO3` (stereo not drawn) [Compound 2d], for which the “concentration of 50% cytotoxicity (TD50)” value in series [1] is above 160 µg/mL. The same molecule gave an ID50 in the series with T. gondii strain 2F (setting [5]) of 0.5 µg/mL (≈ 1.08 µM). Besides, the IC50 in the series on T. gondii strain 2F (setting [9]) amounted to 1100 nM.

On to `CC1=C(c2nccs2)OC2OC3(C)CCC4C(C)CCC1C24OO3` (stereo not drawn) [Compound 3a, DART-Thiaz], for which, in the series with T. gondii tachyzoites [2], the “inhibition of T. gondii replication” value is “moderate inhibition”. For the same molecule, in the series on T. gondii strain 2F (setting [10]), the IC50 worked out at 1700 nM.

`CC1=C(c2nc3ccccc3s2)OC2OC3(C)CCC4C(C)CCC1C24OO3` (stereo not drawn) [Compound 3b, DART-Benzothiazole]: the “inhibition of T. gondii replication” value with T. gondii tachyzoites [2] is reported as “quite effective”. In the series with T. gondii strain 2F (setting [10]), the IC50 stood at 1000 nM.

For `CC1=C(C=O)OC(C)C1C` (stereo not drawn) [Compound 3c, DART-ald], the “inhibition of T. gondii replication” value in the series on T. gondii tachyzoites [2] is given as “quite effective”. Besides, in the series on T. gondii strain 2F (setting [7]), the IC50 came out at 1000 nM.

Consider `CC1=C(C(=O)O)OC(C)C1C` (stereo not drawn) [Compound 3d, DART-C(O)—OH], for which, in the series with T. gondii tachyzoites [2], the “inhibition of T. gondii replication” value is “ineffective”. Besides, in the series on T. gondii strain 2F (setting [7]), the IC50 is 40300 nM.

Turning to `COC(=O)C1=C(C)C(C)C(C)O1` (stereo not drawn) [Compound 3e, DART-C(O)—OMe], the “concentration of 50% cytotoxicity (TD50)” value in series [1] (human) is above 160 µg/mL. Further, the “inhibition of T. gondii replication” value in the series on T. gondii tachyzoites [2] is reported as “moderate inhibition”. Also, the IC50 in the series with T. gondii strain 2F (setting [7]) came to 2900 nM.

In the case of `CCNC(=O)C1=C(C)C(C)C(C)O1` (stereo not drawn) [Compound 3f, DART-C(O)—NHEt], in the series with T. gondii tachyzoites [2], the “inhibition of T. gondii replication” value is “moderate inhibition”. For the same molecule, the “inhibition of attachment … to HFF cells” value with T. gondii tachyzoites [3] is listed as “exception”. The IC50 in the series on T. gondii strain 2F (setting [7]) came to 4400 nM.

For `C[C@H]1[C@@H](CCCO)O[C@@H]2O[C@]3(C)CC[C@H]4[C@H](C)CC[C@@H]1[C@@]24O3` [Deoxy-2a, Deoxy-ART-PrOH], in series [4], the antimalaria activity entry is reported as “virtually no antimalaria activity”. In addition, in the series on T. gondii strain 2F (setting [5]), the ID50 amounted to 173 µg/mL (≈ 557 µM). In addition, the IC50 in the series on T. gondii strain 2F (setting [6]) was 560000 nM. Moreover, the “antitoxoplasma inhibitory activity (growth inhibition assay)” value with T. gondii strain 2F is “virtually no inhibitory activity; also recorded: devoid of antitoxoplasma activity”.

Regarding `CC1=C(c2nccs2)OC2O[C@]3(C)CC[C@H]4[C@H](C)CC[C@@H]1[C@@]24O3` (stereo partly drawn) [Deoxy-3a, deoxy-DART-thiaz], the “inhibition of T. gondii replication” value in the series on T. gondii tachyzoites [2] is given as “ineffective”. The antimalaria activity entry in series [4] is recorded as “virtually no antimalaria activity”. In the series on T. gondii tachyzoites [3], the “inhibition of attachment … to HFF cells” value is recorded as “effective in inhibition of attachment”. In addition, the IC50 with T. gondii strain 2F (setting [7]) stood at 960000 nM. Besides, the “antitoxoplasma inhibitory activity (growth inhibition assay)” value in the series on T. gondii strain 2F was “little or no efficacy; also recorded: devoid of antitoxoplasma activity”.

As for `COc1cc(Cc2cnc(N)nc2N)cc(OC)c1OC` [Trimethoprim, reference compound], the “concentration of 50% cytotoxicity (TD50)” value in series [1] (human) was 60 µg/mL. For the same molecule, in the series on T. gondii strain 2F (setting [5]), the ID50 came to 5.2 µg/mL (≈ 17.9 µM). In addition, the IC50 worked out at 17900 nM in the series with T. gondii strain 2F (Toxoplasma gondii, Fibroblast, read-out: ID50); 19000 nM in the series with T. gondii strain 2F (Toxoplasma gondii, read-out: ID50); 5.2 µg/mL in the series with T. gondii strain 2F (Toxoplasma gondii, read-out: concentration inhibiting toxoplasma replication).
